According to ChEMBL document CHEMBL1140569, “Synthesis and structure-activity relationships of thieno[2,3-b]pyrroles as antagonists of the GnRH receptor” (Bioorg Med Chem Lett, 2007):
≈ marks a conversion by molar mass, not a printed value. One block for each compound: values may come before it. Calls of active or inactive are those of the source. No cut-off for these calls is given here.

Experiments:
[1] = AUC in rat at 10 mg/kg, po; assay type: ADME, organism-based; design: dose 10 mg/kg, route oral; details: plasma
[2] = Plasma clearance in rat; assay type: ADME, organism-based
Rattus norvegicus = assay: Inhibition of LH production in castrated AP Wistar Han rat model at 75 mg/kg, po after 12 hrs by radioimmunoassay; assay type: functional, organism-based; design: dose 75 mg/kg
[3] = AUC in rat at 1 mg/kg, po; assay type: ADME, organism-based; design: dose 1 mg/kg, route oral; details: plasma
[4] = Solubility in 0.1 M phosphate buffer at pH 7.4
Cytochrome P450 3A4 = Cytochrome P450 3A4 (Homo sapiens, UniProt P08684); assay: Inhibition of human CYP3A4
[5] = Oral bioavailability in rat; assay type: ADME, organism-based; details: in vivo

Sequence of Cytochrome P450 3A4 (P08684 whole entry): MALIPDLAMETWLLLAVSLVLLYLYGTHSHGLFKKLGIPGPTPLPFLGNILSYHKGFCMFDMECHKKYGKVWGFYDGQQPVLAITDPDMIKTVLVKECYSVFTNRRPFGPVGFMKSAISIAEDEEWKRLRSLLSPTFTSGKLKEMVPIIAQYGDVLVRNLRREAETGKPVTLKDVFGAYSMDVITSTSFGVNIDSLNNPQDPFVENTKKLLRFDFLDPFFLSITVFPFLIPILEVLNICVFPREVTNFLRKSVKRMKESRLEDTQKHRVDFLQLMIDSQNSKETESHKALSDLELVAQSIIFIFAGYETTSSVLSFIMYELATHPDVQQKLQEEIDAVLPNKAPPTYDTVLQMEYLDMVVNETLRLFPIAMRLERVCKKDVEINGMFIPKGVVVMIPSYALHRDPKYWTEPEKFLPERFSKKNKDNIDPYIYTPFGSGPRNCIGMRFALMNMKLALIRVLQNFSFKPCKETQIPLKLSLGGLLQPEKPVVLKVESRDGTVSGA

AUC [1]: 27.1 µM·h
clearance [2]: 4 mL/min/kg
Compound: Cc1cc(C)cc(-c2[nH]c3sc(C(C)(C)C(=O)N4C5CCC4CC5)cc3c2CCN2CCC(C(=O)N3CCOCC3)CC2)c1
Activity (Rattus norvegicus): Active

AUC [1]: 39.3 µM·h
clearance [2]: 1.3 mL/min/kg
Compound: Cc1cc(C)cc(-c2[nH]c3sc(C(C)(C)C(=O)N4C5CCC4CC5)cc3c2CCN2CCC(C(=O)N3CCCC(O)C3)CC2)c1 (stereo not drawn)

AUC [3]: 0.36 µM·h
Compound: Cc1cc(C)cc(-c2[nH]c3sc(C(C)(C)C(=O)N4C5CCC4CC5)cc3c2C(=O)CN2CCC(C(=O)N3CCOCC3)CC2)c1

solubility [4]: 425 µM (≈ 275 µg/mL)
IC50 (Cytochrome P450 3A4): > 10 µM
Compound: Cc1cc(C)cc(-c2[nH]c3sc(C(C)(C)C(=O)N4C5CCC4CC5)cc3c2CCN2CCN(CC(O)CN3CCNCC3)CC2)c1 (stereo not drawn)

AUC [3]: 0.006 µM·h
Compound: Cc1cc(C)cc(-c2[nH]c3sc(C(C)(C)C(=O)N4C5CCC4CC5)cc3c2CCN2CCC(N3CCOCC3)CC2)c1

solubility [4]: 104 µM (≈ 61.3 µg/mL)
Compound: Cc1cc(C)cc(-c2[nH]c3sc(C(C)(C)C(=O)N4C5CCC4CC5)cc3c2CCN2CCN(CC(=O)N(C)C)CC2)c1

Compound: Cc1cc(C)cc(-c2[nH]c3sc(C(C)(C)C(=O)N4C5CCC4CC5)cc3c2[C@H](C)CNC(=O)N2CCC(c3ccncc3)CC2)c1
solubility [4]: 0.6 µM (≈ 0.383 µg/mL)

AUC [1]: 190 µM·h
clearance [2]: 0.8 mL/min/kg
bioavailability [5]: 38%
Compound: COC1CCN(C(=O)C2CCN(CCc3c(-c4cc(C)cc(C)c4)[nH]c4sc(C(C)(C)C(=O)N5C6CCC5CC6)cc34)CC2)C1 (stereo not drawn)

AUC [1]: 0.526 µM·h
Compound: Cc1cc(C)cc(-c2[nH]c3sc(C(C)(C)C(=O)N4C5CCC4CC5)cc3c2CCN2CCC(OCC(=O)N3CCOCC3)CC2)c1

Compound: Cc1cc(C)cc(-c2[nH]c3sc(C(C)(C)C(=O)N4C5CCC4CC5)cc3c2[C@H](C)CN/C(=N/C(=O)OC(C)C)N2CCC(c3ccncc3)CC2)c1
solubility [4]: 1.4 µM (≈ 1.01 µg/mL)

solubility [4]: 107 µM (≈ 72 µg/mL)
Compound: CC(=O)NC1CCN(C(=O)CN2CCN(CCc3c(-c4cc(C)cc(C)c4)[nH]c4sc(C(C)(C)C(=O)N5C6CCC5CC6)cc34)CC2)C1 (stereo not drawn)

solubility [4]: 0.8 µM (≈ 0.567 µg/mL)
Compound: Cc1cc(C)cc(-c2[nH]c3sc(C(C)(C)C(=O)N4C5CCC4CC5)cc3c2[C@H](C)CNC(=NC(=O)OC(C)C)N2CCC(c3ccncc3)C2)c1 (stereo partly drawn)

solubility [4]: 947 µM (≈ 596 µg/mL)
Compound: Cc1cc(C)cc(-c2[nH]c3sc(C(C)(C)C(=O)N4C5CCC4CC5)cc3c2C(=O)CN2CCN(CC(=O)N3CCCC3)CC2)c1

AUC [3]: 0.018 µM·h
Compound: Cc1cc(C)cc(-c2[nH]c3sc(C(C)(C)C(=O)N4C5CCC4CC5)cc3c2CCN2CCC(CNC(=O)N3CCOCC3)CC2)c1

solubility [4]: 236 µM (≈ 163 µg/mL)
IC50 (Cytochrome P450 3A4): 6 µM
Compound: CC(=O)N1CCN(CC(O)CN2CCN(CCc3c(-c4cc(C)cc(C)c4)[nH]c4sc(C(C)(C)C(=O)N5C6CCC5CC6)cc34)CC2)CC1 (stereo not drawn)

AUC [3]: 0.002 µM·h
Compound: CCN(CC)CCOC1CCN(CCc2c(-c3cc(C)cc(C)c3)[nH]c3sc(C(C)(C)C(=O)N4C5CCC4CC5)cc23)CC1

AUC [3]: 0.041 µM·h
Compound: Cc1cc(C)cc(-c2[nH]c3sc(C(C)(C)C(=O)N4C5CCC4CC5)cc3c2CCN2CCC(CC(=O)N3CCOCC3)CC2)c1

solubility [4]: 56 µM (≈ 33.4 µg/mL)
Compound: Cc1cc(C)cc(-c2[nH]c3sc(C(C)(C)C(=O)N4CCCC4)cc3c2[C@H](C)CNC(=O)N2CCC(c3ccccc3)C2)c1 (stereo partly drawn)

solubility [4]: 4.6 µM (≈ 3.13 µg/mL)
Compound: COC(=O)/N=C(/NC[C@@H](C)c1c(-c2cc(C)cc(C)c2)[nH]c2sc(C(C)(C)C(=O)N3C4CCC3CC4)cc12)N1CCC(c2ccncc2)C1 (stereo partly drawn)

clearance [2]: 153 mL/min/kg
bioavailability [5]: 4%
Compound: Cc1cc(C)cc(-c2[nH]c3sc(C(C)(C)C(=O)N4C5CCC4CC5)cc3c2CCN2CCN(CC(=O)N3CCOCC3)CC2)c1

AUC [1]: 0.254 µM·h
Compound: Cc1cc(C)cc(-c2[nH]c3sc(C(C)(C)C(=O)N4C5CCC4CC5)cc3c2CCN2CCC(C(=O)N3CCOCC3)C(C)C2)c1 (stereo not drawn)

AUC [1]: 358 µM·h
clearance [2]: 0.1 mL/min/kg
bioavailability [5]: 35%
Compound: COC1CCN(C(=O)C2CCN(CCc3c(-c4cc(C)cc(C)c4)[nH]c4sc(C(C)(C)C(=O)N5C6CCC5CC6)cc34)CC2)CC1

solubility [4]: 2 µM (≈ 1.2 µg/mL)
Compound: Cc1cc(C)cc(-c2[nH]c3sc(C(C)(C)C(=O)N4C5CCC4CC5)cc3c2CN2CCN(CC(=O)N3CCCC3)CC2)c1
